Experimental data: patent publication US9187455B2, “Substituted pyridazines as PDE10A inhibitors” (Hoffmann-La Roche Inc., priority 2009, dated 2015)

Each compound was assayed against T1, PDE10A2 (Homo sapiens, UniProt Q9Y233) (assay: PDE10A2 Scintillation Proximity Assay (SPA), [3H]-cGMP hydrolysis). Settings: catalytic domain of human PDE10A2 (S449-D789), 0.25 nM enzyme, 50 nM cGMP + 50 nM [3H]-cGMP, 30 minutes at room temperature; read-out: PDE10A2 inhibition IC50.
T1 construct: residues serine 449 to aspartate 789; His6 (H6) with Gateway linker and thrombin cleavage site (N, cleaved yes); made in house; host or cells: E. coli BL21(DE3) pLysS
Assay type: biochemical
Protocol: The following tests were carried out in order to determine the activity of the compounds of the present invention. PDE10 activity of the compounds of the present invention is determined using a Scintillation Proximity Assay (SPA)-based method similar to the one previously described (Fawcett, L. et al., ProcNatl Acad Sci USA (2000) 97(7):3702-3707).
PDE10A1 and PDE10A2 are two splice variants of PDE10A. There are these 2 splice variants known, which differ in the N-terminal part of the protein. The catalytic domains of PDE10A1 and PDE10A2 are identical. The assay for PDE10A2 described below is therefore also representative for PDE10A1 and also for PDE10A in general.
The PDE10A2 assay was performed in a two step procedure in 96-well micro titer plates. The reaction mixture of 80 μl contained 20 mM HEPES/10 mM MgCl2/[…] (pH 7.5), 50 nM cGMP (Sigma) and 50 nM [^3H]-cGMP (GE Healthcare), 0.25 nM PDE10A2 with or without a specific test compound. A range of concentrations of the potential inhibitor was used to generate data for calculating the concentration of inhibitor resulting in 50% of the effect (e.g. IC50, the concentration of the competitor inhibiting PDE10A2 activity 50%). Non-specific activity was tested without the enzyme. The reaction was initiated by addition of the substrate solution (cGMP and [^3H]-cGMP) and allowed to progress for 30 minutes at room temperature. The reaction was terminated by transferring 50 μl of the reaction mixture into an OptiPlate (Perkin Elmer) containing 25 μl of YSi-SPA scintillation beads (GE Healthcare) in 18 mM zinc sulphate solution (stop reagent). After 1 h under shaking, the plate was centrifuged one minute at 1000 rpm to allow beads to settle. Afterwards, radioactive counts were measured on a Perkin Elmer TopCount Scintillation plate reader.
The catalytic domain of human PDE10A2, residues serine 449 to aspartate 789, was amplified by PCR using cDNA (Origene) and the oligonucleotides 5′-GGGGACAAGTTTGT […]-3′ (with AttB1 recombination site in bold and thrombin protease cleavage site in italics) and 5′-[…]-3′ (with AttB2 recombination site in bold) which conferred Gateway recombination sites. The PCR product was used in a BP recombination reaction with pDONR221 to generate pENTR Thm-PDE10A2(S449-D789) which was DNA sequence verified and then used in an LR recombination reaction with a Gateway modified version of pET11a. The resulting expression vector, placT7.2H6-(gwl)-Thm-PDE10A2(S449-D789) was DNA sequence confirmed and transformed into E. coli strain BL21(DE3) pLysS and recombinant protein was produced in TB medium at 20° C. by induction to a final IPTG concentration of 0.5 mM at an optical density of 1.0 at 600 nm for 20 hours. About 30% of the protein was in the soluble fraction of the cell homogenate. The protein was purified using sequential chromatography on Ni-NTA and HiTrapQ/HiTrapS. After thrombin digest at room temperature a HiTrapChelating/HiTrap Benzamindin chromatography removed impurities, uncleaved protein and thrombin. Final purification of PDE10A2(S449-D789) was performed on a Superdex 75 size exclusion chromatography equilibrated with 25 mM HEPES pH 8.4, 0.15 M NaCl. The yield of pure protein was 2 mg/liter of culture volume is relatively low. The purity of the protein was >95%, monomeric and monodisperse as shown by SDS-PAGE, HPLC and analytical ultracentrifugation.

T1 sequence (Q9Y233 715-1055): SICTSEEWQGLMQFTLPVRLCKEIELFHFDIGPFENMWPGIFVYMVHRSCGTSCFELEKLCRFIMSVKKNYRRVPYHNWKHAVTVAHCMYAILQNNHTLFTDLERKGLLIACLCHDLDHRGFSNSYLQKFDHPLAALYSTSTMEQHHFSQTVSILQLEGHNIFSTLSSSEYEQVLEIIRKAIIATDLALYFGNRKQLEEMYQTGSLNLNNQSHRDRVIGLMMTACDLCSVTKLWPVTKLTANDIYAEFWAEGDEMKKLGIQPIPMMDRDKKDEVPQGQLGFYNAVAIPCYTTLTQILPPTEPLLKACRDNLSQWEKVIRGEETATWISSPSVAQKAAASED

Structure (SMILES) | IC50 [nM]
Cc1cncc(-n2ccc(=O)c(-c3ccnn3-c3ccc4c(c3)OCCO4)n2)c1 [Example 36, 3-[2-(2,3-Dihydro-benzo[1,4]dioxin-6-yl)-2H-pyrazol-3-yl]-1-(5-methyl-pyridin-3-yl)-1H-pyridazin-4-one] | 71
O=c1ccn(-c2cccnc2)nc1-c1ccnn1-c1cccc2cnccc12 [Example 86, 3-(2-Isoquinolin-5-yl-2H-pyrazol-3-yl)-1-pyridin-3-yl-1H-pyridazin-4-one] | 50
O=c1ccn(-c2ccncc2)nc1-c1ccnn1-c1ccnc2ccc(Cl)cc12 [Example 72, 3-[2-(6-Chloro-quinolin-4-yl)-2H-pyrazol-3-yl]-1-pyridin-4-yl-1H-pyridazin-4-one] | 78
O=c1ccn(-c2cncc(Cl)c2)nc1-c1ccnn1-c1ccnc2cc(Cl)ccc12 [Example 70, 1-(5-Chloro-pyridin-3-yl)-3-[2-(7-chloro-quinolin-4-yl)-2H-pyrazol-3-yl]-1H-pyridazin-4-one] | 253
O=c1ccn(-c2ccncc2)nc1-c1ccnn1-c1cccc2ccncc12 [Example 27, 3-(2-Isoquinolin-8-yl-2H-pyrazol-3-yl)-1-pyridin-4-yl-1H-pyridazin-4-one] | 126
Cc1cncc(-n2ccc(=O)c(-c3ccnn3-c3ccnc4cc(Cl)ccc34)n2)c1 [Example 82, 3-[2-(7-Chloro-quinolin-4-yl)-2H-pyrazol-3-yl]-1-(5-methyl-pyridin-3-yl)-1H-pyridazin-4-one] | 102
O=c1ccn(-c2ccnc(Cl)c2)nc1-c1ccnn1-c1cccc2cnccc12 [Example 59, 1-(2-Chloro-pyridin-4-yl)-3-(2-isoquinolin-5-yl-2H-pyrazol-3-yl)-1H-pyridazin-4-one] | 220
O=c1ccn(-c2ccnc(Cl)c2)nc1-c1ccnn1-c1ccnc2cc(Cl)ccc12 [Example 69, 1-(2-Chloro-pyridin-4-yl)-3-[2-(7-chloro-quinolin-4-yl)-2H-pyrazol-3-yl]-1H-pyridazin-4-one] | 57
O=c1ccn(-c2ccncc2)nc1-c1ccnn1-c1ccncc1 [Example 31, 1-Pyridin-4-yl-3-(2-pyridin-4-yl-2H-pyrazol-3-yl)-1H-pyridazin-4-one] | 811
O=c1ccn(-c2ccnc(O)c2)nc1-c1ccnn1-c1ccc2c(c1)OCCO2 [Example 46, 3-[2-(2,3-Dihydro-benzo[1,4]dioxin-6-yl)-2H-pyrazol-3-yl]-1-(2-hydroxy-pyridin-4-yl)-1H-pyridazin-4-one] | 57
O=c1ccn(-c2cncc(F)c2)nc1-c1ccnn1-c1ccnc2ccc(F)cc12 [Example 49, 1-(5-Fluoro-pyridin-3-yl)-3-[2-(6-fluoro-quinolin-4-yl)-2H-pyrazol-3-yl]-1H-pyridazin-4-one] | 163
O=c1ccn(-c2ccncc2)nc1-c1ccnn1-c1ccc(F)cc1 [Example 7, 3-[2-(4-Fluoro-phenyl)-2H-pyrazol-3-yl]-1-pyridin-4-yl-1H-pyridazin-4-one] | 183
C#Cc1cccc(-n2nccc2-c2nn(-c3ccncc3)ccc2=O)c1 [Example 99, 3-[2-(3-Ethynyl-phenyl)-2H-pyrazol-3-yl]-1-pyridin-4-yl-1H-pyridazin-4-one] | 18
O=c1ccn(-c2ccncc2)nc1-c1ccnn1-c1ccc2c(c1)OCCO2 [Example 15, 3-[2-(2,3-Dihydro-benzo[1,4]dioxin-6-yl)-2H-pyrazol-3-yl]-1-pyridin-4-yl-1H-pyridazin-4-one] | 80
CS(=O)(=O)c1cc(-n2ccc(=O)c(-c3ccnn3-c3ccc4c(c3)OCCO4)n2)ccn1 [Example 17, 3-[2-(2,3-Dihydro-benzo[1,4]dioxin-6-yl)-2H-pyrazol-3-yl]-1-(2-methanesulfonyl-pyridin-4-yl)-1H-pyridazin-4-one] | 96
Cc1cncc(-n2ccc(=O)c(-c3ccnn3-c3ccnc4ccc(F)cc34)n2)c1 [Example 48, 3-[2-(6-Fluoro-quinolin-4-yl)-2H-pyrazol-3-yl]-1-(5-methyl-pyridin-3-yl)-1H-pyridazin-4-one] | 25
O=c1ccn(-c2ccnc(Cl)c2)nc1-c1ccnn1-c1ccnc2ccc(Cl)cc12 [Example 62, 1-(2-Chloro-pyridin-4-yl)-3-[2-(6-chloro-quinolin-4-yl)-2H-pyrazol-3-yl]-1H-pyridazin-4-one] | 154
O=c1ccn(-c2ccc3cnccc3c2)nc1-c1ccnn1-c1cccc(F)c1 [Example 101, 3-[2-(3-Fluoro-phenyl)-2H-pyrazol-3-yl]-1-isoquinolin-6-yl-1H-pyridazin-4-one] | 41
Cc1cc(-n2ccc(=O)c(-c3ccnn3-c3cccc4ncccc34)n2)ccn1 [Example 83, 1-(2-Methyl-pyridin-4-yl)-3-(2-quinolin-5-yl-2H-pyrazol-3-yl)-1H-pyridazin-4-one] | 134

Other lines, results leading:

IC50 [nM] | Structure (SMILES)
56 | O=c1ccn(-c2cncc(C(F)(F)F)c2)nc1-c1ccnn1-c1ccnc2ccccc12 [Example 71, 3-(2-Quinolin-4-yl-2H-pyrazol-3-yl)-1-(5-trifluoromethyl-pyridin-3-yl)-1H-pyridazin-4-one]
78 | O=c1ccn(-c2ccnc(Cl)c2)nc1-c1ccnn1-c1ccccc1F [Example 63, 1-(2-Chloro-pyridin-4-yl)-3-[2-(2-fluoro-phenyl)-2H-pyrazol-3-yl]-1H-pyridazin-4-one]
115 | O=c1ccn(-c2ccncc2)nc1-c1ccnn1-c1ccccc1F [Example 4, 3-[2-(2-Fluoro-phenyl)-2H-pyrazol-3-yl]-1-pyridin-4-yl-1H-pyridazin-4-one]
120 | O=c1ccn(-c2ccc(C(F)(F)F)nc2)nc1-c1ccnn1-c1ccccc1F [Example 75, 3-[2-(2-Fluoro-phenyl)-2H-pyrazol-3-yl]-1-(6-trifluoromethyl-pyridin-3-yl)-1H-pyridazin-4-one]
281 | O=c1ccn(-c2ccnc(C(F)(F)F)c2)nc1-c1ccnn1-c1ccccc1F [Example 94, 3-[2-(2-Fluoro-phenyl)-2H-pyrazol-3-yl]-1-(2-trifluoromethyl-pyridin-4-yl)-1H-pyridazin-4-one]
2560 | Cc1cc(-n2ccc(=O)c(-c3ccnn3-c3cccc(F)c3)n2)ccn1 [Example 39, 3-[2-(3-Fluoro-phenyl)-2H-pyrazol-3-yl]-1-(2-methyl-pyridin-4-yl)-1H-pyridazin-4-one]
73 | O=c1ccn(-c2ccnc(C(F)(F)F)c2)nc1-c1ccnn1-c1cccc(Cl)c1 [Example 95, 3-[2-(3-Chloro-phenyl)-2H-pyrazol-3-yl]-1-(2-trifluoromethyl-pyridin-4-yl)-1H-pyridazin-4-one]
2290 | N#Cc1cc(-n2ccc(=O)c(-c3ccnn3-c3cccc(F)c3)n2)ccn1 [Example 44, 4-{3-[2-(3-Fluoro-phenyl)-2H-pyrazol-3-yl]-4-oxo-4H-pyridazin-1-yl}-pyridine-2-carbonitrile]
20 | O=c1ccn(-c2ccc3ncccc3c2)nc1-c1ccnn1-c1ccccc1F [Example 102, 3-[2-(2-Fluoro-phenyl)-2H-pyrazol-3-yl]-1-quinolin-6-yl-1H-pyridazin-4-one]
414 | COc1cc(-n2ccc(=O)c(-c3ccnn3-c3cccc(F)c3)n2)ccn1 [Example 40, 3-[2-(3-Fluoro-phenyl)-2H-pyrazol-3-yl]-1-(2-methoxy-pyridin-4-yl)-1H-pyridazin-4-one]
178 | O=c1ccn(-c2cncc(C(F)(F)F)c2)nc1-c1ccnn1-c1ccccc1F [Example 68, 3-[2-(2-Fluoro-phenyl)-2H-pyrazol-3-yl]-1-(5-trifluoromethyl-pyridin-3-yl)-1H-pyridazin-4-one]
